According to the NIST ThermoML archive (doi:10.1016/j.jct.2009.01.006):

Experiments:
[1] = xn = mol fraction of the nth substance listed; details: 303.15 K, 101 kPa, Liquid, Direct dilatometry
[2] = φn = volume fraction of the nth substance listed; details: 303.15 K, 101 kPa, Liquid; for speed of sound: Linear variable-path acoustic interferometer
[3] = 303.15 K, Liquid; for speed of sound: Linear variable-path acoustic interferometer
[4] = refractive index (Na D-line) (dimensionless); details: 298.15 K; 101.33 kPa; Liquid; Standard Abbe refractometry

O=C1CCCCC1 [cyclohexanone] + CN1CCCC1=O
Details	excess molar volume [m3/mol]	mass density [kg/m3]	speed of sound [m/s]
[1], x2 = 0.0657	2.7e-08	–	–
[1], x2 = 0.1238	4.6e-08	–	–
[1], x2 = 0.2207	7.1e-08	–	–
[1], x2 = 0.3217	9e-08	–	–
[1], x2 = 0.4262	1.13e-07	–	–
[1], x2 = 0.5178	1.21e-07	–	–
[1], x2 = 0.5918	1.18e-07	–	–
[1], x2 = 0.7236	1.09e-07	–	–
[1], x2 = 0.7984	9.4e-08	–	–
[1], x2 = 0.9166	5.2e-08	–	–
[1], x2 = 0.9604	3.2e-08	–	–
[2], φ2 = 0	–	937.58	1386
[2], φ2 = 0.1156	–	947.92	1392
[2], φ2 = 0.2076	–	954.74	1402
[2], φ2 = 0.3053	–	962.9	1415
[2], φ2 = 0.4073	–	971.45	1426
[2], φ2 = 0.4984	–	979.17	1438
[2], φ2 = 0.5729	–	985.58	1454
[2], φ2 = 0.7078	–	997.22	1480
[2], φ2 = 0.7856	–	1004.04	1496
[2], φ2 = 0.9104	–	1015.17	1522

CCCC(C)=O [pentan-2-one]
[3]
Details	mass density [kg/m3]	speed of sound [m/s]
101 kPa	796.54	1202
101.33 kPa	796.58	1197

Details	refractive index
[4]	1.3883

CCCC(C)=O [pentan-2-one] + CN1CCCC1=O
Details	excess molar volume [m3/mol]	mass density [kg/m3]	speed of sound [m/s]
[1], x2 = 0.0776	-1.11e-07	–	–
[1], x2 = 0.1284	-1.74e-07	–	–
[1], x2 = 0.2108	-2.81e-07	–	–
[1], x2 = 0.2852	-3.59e-07	–	–
[1], x2 = 0.3669	-4.39e-07	–	–
[1], x2 = 0.4655	-4.98e-07	–	–
[1], x2 = 0.5205	-5.21e-07	–	–
[1], x2 = 0.5851	-5.28e-07	–	–
[1], x2 = 0.6353	-5.29e-07	–	–
[1], x2 = 0.7406	-4.68e-07	–	–
[1], x2 = 0.8612	-3.15e-07	–	–
[1], x2 = 0.9366	-1.67e-07	–	–
[1], x2 = 0.9769	-7.6e-08	–	–
[2], φ2 = 0	–	796.54	1202
[2], φ2 = 0.1165	–	824.33	1231
[2], φ2 = 0.193	–	842.58	1254
[2], φ2 = 0.3417	–	877.77	1308
[2], φ2 = 0.4382	–	900.32	1345
[2], φ2 = 0.493	–	913.03	1367
[2], φ2 = 0.6094	–	939.74	1403
[2], φ2 = 0.7189	–	964.15	1429
[2], φ2 = 0.8475	–	991.98	1467
[2], φ2 = 0.9297	–	1009.18	1498

CCC(=O)CC [pentan-3-one]
[3]
Details	mass density [kg/m3]	speed of sound [m/s]
101 kPa	804.57	1198
101.33 kPa	804.62	1201

Details	refractive index
[4]	1.3902

CCC(=O)CC [pentan-3-one] + CN1CCCC1=O
Details	excess molar volume [m3/mol]	mass density [kg/m3]	speed of sound [m/s]
[1], x2 = 0.0634	-1.55e-07	–	–
[1], x2 = 0.1526	-2.89e-07	–	–
[1], x2 = 0.2446	-3.57e-07	–	–
[1], x2 = 0.3948	-3.98e-07	–	–
[1], x2 = 0.4476	-4.12e-07	–	–
[1], x2 = 0.5371	-4.2e-07	–	–
[1], x2 = 0.591	-4.22e-07	–	–
[1], x2 = 0.7146	-4.13e-07	–	–
[1], x2 = 0.7962	-3.45e-07	–	–
[1], x2 = 0.9124	-2.31e-07	–	–
[1], x2 = 0.9626	-1.06e-07	–	–
[2], φ2 = 0	–	804.57	1198
[2], φ2 = 0.1401	–	837.52	1230
[2], φ2 = 0.2265	–	857.08	1252
[2], φ2 = 0.3711	–	889.22	1297
[2], φ2 = 0.423	–	900.7	1316
[2], φ2 = 0.5121	–	920.45	1347
[2], φ2 = 0.5666	–	932.49	1365
[2], φ2 = 0.6937	–	960.46	1415
[2], φ2 = 0.79	–	981.3	1452
[2], φ2 = 0.904	–	1004.83	1502
